In the supplement of paper PMC10307832:

Experiments:
Experiment in all cases: relative viability (nuclei count vs DMSO), 5 days (fraction); higher = more cells survive
[1] = compound: C1CNCCC1C2=CC(=NN2)C3=CC=NC=C3 + Cc1nc(NC(=O)N2CCC[C@H]2C(N)=O)sc1-c1ccnc(C(C)(C)C(F)(F)F)c1 [Alpelisib] (partner 2 µM)
Summary of the method: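 Relative viability equals treated-well nuclei counts divided by vehicle-well nuclei counts. Counts came from 4× images of lung cancer cell lines grown in 1536-well plates for 5 days after pin-tool dosing on the day after seeding. Dosing used one drug alone or a fixed anchor-drug dose plus five library-drug doses (not always all listed) in √10 steps, and values are medians of duplicate plates.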

Tanzisertib = compound: O[C@H]1CC[C@H](Nc2ncc3nc(Nc4c(F)cc(F)cc4F)n([C@H]4CCOC4)c3n2)CC1 [Tanzisertib]
Summary of the method: (§1)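 For viability, nuclei in each treated well were divided by nuclei in vehicle wells and the median across plates was taken. Lung cancer cell lines in 1536-well plates were pinned with five library-drug doses (not always all listed) spaced by √10, cultured 5 days without medium change, and imaged at 4× after Hoechst staining, with plates passing only at control CV below 25% and at least one doubling.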

[2] = compound: C1CNCCC1C2=CC(=NN2)C3=CC=NC=C3
Summary of the method: as §1

[3] = compound: C[C@@H](N)c1ccc(C(=O)Nc2ccnc3[nH]ccc23)cc1
Summary of the method: as §1

NCI-H358
relative viability ([1]; first compound 0.08 µM): 0.588 | relative viability ([1]; first compound 0.8 µM): 0.831 | relative viability ([1]; first compound 2.53 µM): 0.839 | relative viability ([1]; first compound 8 µM): 0.845 | relative viability (Tanzisertib; 0.08 µM): 1.12 | relative viability (Tanzisertib; 0.253 µM): 0.912 | relative viability (Tanzisertib; 0.8 µM): 0.865 | relative viability (Tanzisertib; 2.53 µM): 0.938 | relative viability (Tanzisertib; 8 µM): 0.581 | relative viability ([2]; 0.08 µM): 0.902 | relative viability ([2]; 0.8 µM): 0.994 | relative viability ([2]; 2.53 µM): 1.02 | relative viability ([2]; 8 µM): 0.822 | relative viability ([3]; 0.04 µM): 0.912 | relative viability ([3]; 0.1265 µM): 0.925 | relative viability ([3]; 0.4 µM): 0.921 | relative viability ([3]; 1.265 µM): 0.86 | relative viability ([3]; 4 µM): 0.754

H3255
relative viability ([1]; first compound 0.08 µM): 0.674 | relative viability ([1]; first compound 0.8 µM): 0.646 | relative viability ([1]; first compound 2.53 µM): 0.858 | relative viability ([1]; first compound 8 µM): 0.734 | relative viability (Tanzisertib; 0.08 µM): 0.998 | relative viability (Tanzisertib; 0.253 µM): 1.03 | relative viability (Tanzisertib; 0.8 µM): 1.08 | relative viability (Tanzisertib; 2.53 µM): 0.957 | relative viability (Tanzisertib; 8 µM): 0.599 | relative viability ([2]; 0.08 µM): 0.934 | relative viability ([2]; 0.8 µM): 0.952 | relative viability ([2]; 2.53 µM): 1.2 | relative viability ([2]; 8 µM): 1 | relative viability ([3]; 0.04 µM): 1 | relative viability ([3]; 0.1265 µM): 1.21 | relative viability ([3]; 0.4 µM): 1.16 | relative viability ([3]; 1.265 µM): 1.01 | relative viability ([3]; 4 µM): 0.925

NCI-H2228
relative viability ([1]; first compound 0.08 µM): 0.769 | relative viability ([1]; first compound 0.8 µM): 0.872 | relative viability ([1]; first compound 2.53 µM): 0.851 | relative viability ([1]; first compound 8 µM): 0.617 | relative viability (Tanzisertib; 0.08 µM): 1.19 | relative viability (Tanzisertib; 0.253 µM): 0.853 | relative viability (Tanzisertib; 0.8 µM): 1.02 | relative viability (Tanzisertib; 2.53 µM): 1.06 | relative viability (Tanzisertib; 8 µM): 0.864 | relative viability ([2]; 0.08 µM): 0.921 | relative viability ([2]; 0.8 µM): 1.17 | relative viability ([2]; 2.53 µM): 0.983 | relative viability ([2]; 8 µM): 1.07 | relative viability ([3]; 0.04 µM): 1.17 | relative viability ([3]; 0.1265 µM): 1.05 | relative viability ([3]; 0.4 µM): 1.13 | relative viability ([3]; 1.265 µM): 1.03 | relative viability ([3]; 4 µM): 0.814

NCI-H1623
relative viability (Tanzisertib; 0.08 µM): 1.08 | relative viability (Tanzisertib; 0.253 µM): 1.21 | relative viability (Tanzisertib; 0.8 µM): 1.01 | relative viability (Tanzisertib; 2.53 µM): 0.964 | relative viability (Tanzisertib; 8 µM): 0.952 | relative viability ([2]; 0.08 µM): 0.991 | relative viability ([2]; 0.8 µM): 0.921 | relative viability ([2]; 2.53 µM): 1.14 | relative viability ([2]; 8 µM): 1.03 | relative viability ([3]; 0.04 µM): 1.16 | relative viability ([3]; 0.1265 µM): 0.976 | relative viability ([3]; 0.4 µM): 1.11 | relative viability ([3]; 1.265 µM): 1.06 | relative viability ([3]; 4 µM): 1.15

SW 900
relative viability (Tanzisertib; 0.08 µM): 0.811 | relative viability (Tanzisertib; 0.253 µM): 0.87 | relative viability (Tanzisertib; 0.8 µM): 0.936 | relative viability (Tanzisertib; 2.53 µM): 1.18 | relative viability (Tanzisertib; 8 µM): 0.691 | relative viability ([2]; 0.08 µM): 0.843 | relative viability ([2]; 0.8 µM): 0.67 | relative viability ([2]; 2.53 µM): 0.88 | relative viability ([2]; 8 µM): 0.995 | relative viability ([3]; 0.04 µM): 0.92 | relative viability ([3]; 0.1265 µM): 0.965 | relative viability ([3]; 0.4 µM): 0.887 | relative viability ([3]; 1.265 µM): 1.24 | relative viability ([3]; 4 µM): 0.986

NCI-H1650
relative viability (Tanzisertib; 0.08 µM): 0.953 | relative viability (Tanzisertib; 0.253 µM): 1 | relative viability (Tanzisertib; 0.8 µM): 0.93 | relative viability (Tanzisertib; 2.53 µM): 0.864 | relative viability (Tanzisertib; 8 µM): 0.771 | relative viability ([2]; 0.08 µM): 0.752 | relative viability ([2]; 0.8 µM): 0.995 | relative viability ([2]; 2.53 µM): 0.987 | relative viability ([2]; 8 µM): 0.955 | relative viability ([3]; 0.04 µM): 0.933 | relative viability ([3]; 0.1265 µM): 1.05 | relative viability ([3]; 0.4 µM): 0.951 | relative viability ([3]; 1.265 µM): 0.977 | relative viability ([3]; 4 µM): 0.867

NCI-H2342
relative viability (Tanzisertib; 0.08 µM): 1.09 | relative viability (Tanzisertib; 0.253 µM): 1.09 | relative viability (Tanzisertib; 0.8 µM): 0.945 | relative viability (Tanzisertib; 2.53 µM): 0.845 | relative viability (Tanzisertib; 8 µM): 0.959 | relative viability ([2]; 0.08 µM): 0.919 | relative viability ([2]; 0.8 µM): 0.965 | relative viability ([2]; 2.53 µM): 1.03 | relative viability ([2]; 8 µM): 1.16 | relative viability ([3]; 0.04 µM): 1.03 | relative viability ([3]; 0.1265 µM): 1.06 | relative viability ([3]; 0.4 µM): 1.04 | relative viability ([3]; 1.265 µM): 1.21 | relative viability ([3]; 4 µM): 0.927

ChaGo-K-1
relative viability (Tanzisertib; 0.08 µM): 1.05 | relative viability (Tanzisertib; 0.253 µM): 0.999 | relative viability (Tanzisertib; 0.8 µM): 0.984 | relative viability (Tanzisertib; 2.53 µM): 0.992 | relative viability (Tanzisertib; 8 µM): 0.986 | relative viability ([2]; 0.08 µM): 0.93 | relative viability ([2]; 0.8 µM): 1.05 | relative viability ([2]; 2.53 µM): 0.952 | relative viability ([2]; 8 µM): 0.91 | relative viability ([3]; 0.04 µM): 1.08 | relative viability ([3]; 0.1265 µM): 0.999 | relative viability ([3]; 0.4 µM): 1.02 | relative viability ([3]; 1.265 µM): 0.804 | relative viability ([3]; 4 µM): 0.888

NCI-H1648
relative viability (Tanzisertib; 0.08 µM): 0.97 | relative viability (Tanzisertib; 0.253 µM): 1.14 | relative viability (Tanzisertib; 0.8 µM): 0.926 | relative viability (Tanzisertib; 2.53 µM): 0.97 | relative viability (Tanzisertib; 8 µM): 0.667 | relative viability ([2]; 0.08 µM): 0.979 | relative viability ([2]; 0.8 µM): 0.826 | relative viability ([2]; 2.53 µM): 0.754 | relative viability ([2]; 8 µM): 0.97 | relative viability ([3]; 0.04 µM): 1.44 | relative viability ([3]; 0.1265 µM): 1.21 | relative viability ([3]; 0.4 µM): 1.59 | relative viability ([3]; 1.265 µM): 1.82 | relative viability ([3]; 4 µM): 1.37

NCI-H522
relative viability (Tanzisertib; 0.08 µM): 1.11 | relative viability (Tanzisertib; 0.253 µM): 1.01 | relative viability (Tanzisertib; 0.8 µM): 1.02 | relative viability (Tanzisertib; 2.53 µM): 0.956 | relative viability (Tanzisertib; 8 µM): 0.702 | relative viability ([2]; 0.08 µM): 0.819 | relative viability ([2]; 0.8 µM): 1.05 | relative viability ([2]; 2.53 µM): 0.983 | relative viability ([2]; 8 µM): 0.98 | relative viability ([3]; 0.04 µM): 0.935 | relative viability ([3]; 0.1265 µM): 0.865 | relative viability ([3]; 0.4 µM): 1.11 | relative viability ([3]; 1.265 µM): 0.875 | relative viability ([3]; 4 µM): 0.805
